Experimental data from PubChem BioAssay (NCI).
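Five compound concentrations were applied to cells in 96-well plates for 48 hours; endpoints were derived by simple linear interpolation of the resulting dose-response curve. Definition used: TGI = concentration required for complete inhibition of growth.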

How the values were obtained:
Assay in all cases: inhibition of tumour cell growth, NCI panel, 48 h
[1] = tested on: 786-0 renal
[2] = tested on: A498 renal
[3] = tested on: A549 NSCLC
[4] = tested on: ACHN renal
[5] = tested on: CAKI-1 renal
[6] = tested on: CCRF-CEM leukemia
[7] = tested on: COLO 205 colon
[8] = tested on: DU-145 prostate
[9] = tested on: EKVX NSCLC
[10] = tested on: HCC-2998 colon
[11] = tested on: HCT-116 colon
[12] = tested on: HCT-15 colon
[13] = tested on: HOP-62 NSCLC
[14] = tested on: HOP-92 NSCLC
[15] = tested on: HS 578T breast
[16] = tested on: HT29 colon
[17] = tested on: IGROV1 ovarian
[18] = tested on: K-562 leukemia
[19] = tested on: KM12 colon
[20] = tested on: LOX IMVI melanoma
[21] = tested on: M14 melanoma
[22] = tested on: MALME-3M melanoma
[23] = tested on: MCF7 breast
[24] = tested on: MDA-MB-231 breast
[25] = tested on: MDA-MB-435
[26] = tested on: MDA-N
[27] = tested on: MOLT-4 leukemia
[28] = tested on: NCI-H226 lung
[29] = tested on: NCI-H23 lung
[30] = tested on: NCI-H460 lung
[31] = tested on: NCI/ADR-RES ovarian
[32] = tested on: OVCAR-3 ovarian
[33] = tested on: OVCAR-4 ovarian
[34] = tested on: OVCAR-5 ovarian
[35] = tested on: OVCAR-8 ovarian
[36] = tested on: PC-3 prostate
[37] = tested on: RPMI-8226 leukemia
[38] = tested on: RXF 393 renal
[39] = tested on: SF-268 CNS
[40] = tested on: SF-295 CNS
[41] = tested on: SF-539 CNS
[42] = tested on: SK-MEL-2 melanoma
[43] = tested on: SK-MEL-28 melanoma
[44] = tested on: SK-MEL-5 melanoma
[45] = tested on: SK-OV-3 ovarian
[46] = tested on: SN12C renal
[47] = tested on: SNB-19 CNS
[48] = tested on: SNB-75 CNS
[49] = tested on: SR leukemia
[50] = tested on: T-47D breast
[51] = tested on: TK-10 renal
[52] = tested on: U251 CNS
[53] = tested on: UACC-257 melanoma
[54] = tested on: UACC-62 melanoma
[55] = tested on: UO-31 renal
[56] = tested on: HL-60(TB) leukemia
[57] = tested on: NCI-H522 lung
[58] = tested on: SW-620 colon

With `CC(=O)O[C@H]1C(=O)N(c2cc3c4ccccc4ccc3c3ccccc23)[C@@H]1c1ccccc1` the TGI [1] was 15.9 µM, the TGI [2] was 89.6 µM and the TGI [3] was 61.6 µM. For the same compound, the TGI [4] was 89.2 µM, the TGI [5] was 35.5 µM and the TGI [6] was over 100 µM. It also gave a TGI [7] of 18.1 µM, a TGI [8] of 43.9 µM and a TGI [9] of 74.2 µM. For the same compound, the TGI [10] was 26.8 µM, the TGI [11] was 14.4 µM and the TGI [12] was over 100 µM. The TGI [13] was 32.9 µM, the TGI [14] was 45.7 µM and the TGI [15] was 25.1 µM. For the same compound, the TGI [16] was 6.98 µM, the TGI [17] was 8.27 µM and the TGI [18] was over 100 µM. The TGI [19] was 27.1 µM, the TGI [20] was 33.1 µM and the TGI [21] was 23.1 µM. The TGI [22] was 54.1 µM, the TGI [23] was over 100 µM and the TGI [24] was 48.2 µM. It also gave a TGI [25] of 5.68 µM, a TGI [26] of over 100 µM and a TGI [27] of over 100 µM. It also gave a TGI [28] of 40.3 µM, a TGI [29] of 37.3 µM and a TGI [30] of over 100 µM. For the same compound, the TGI [31] was 29.5 µM, the TGI [32] was 4.86 µM and the TGI [33] was 49.5 µM. It also gave a TGI [34] of over 100 µM, a TGI [35] of 32.1 µM and a TGI [36] of 65.3 µM. The TGI [37] was 6.77 µM, the TGI [38] was 8.95 µM and the TGI [39] was over 100 µM. The TGI [40] was 53.5 µM, the TGI [41] was 13.2 µM and the TGI [42] was 9.4 µM. The TGI [43] was 66.4 µM, the TGI [44] was 67.1 µM and the TGI [45] was 35.8 µM. The TGI [46] was 26.7 µM, the TGI [47] was over 100 µM and the TGI [48] was 7.2 µM. It also gave a TGI [49] of 40.3 µM, a TGI [50] of 98.6 µM and a TGI [51] of 47.1 µM. For the same compound, the TGI [52] was over 100 µM, the TGI [53] was over 100 µM and the TGI [54] was 24 µM. The TGI [55] was 28 µM.

`C=C[C@@](C)(/C=C/c1ccc(O)cc1)CCC=C(C)C` gave a TGI [2] of 35.6 µM, a TGI [3] of 35.1 µM and a TGI [4] of 22.4 µM. For the same compound, the TGI [5] was 32.6 µM, the TGI [6] was 31 µM and the TGI [7] was 33.1 µM. The TGI [8] was 26.1 µM, the TGI [10] was 35.5 µM and the TGI [11] was 32.2 µM. For the same compound, the TGI [12] was 32.7 µM, the TGI [56] was 29.7 µM and the TGI [13] was 33.8 µM. For the same compound, the TGI [14] was 32 µM, the TGI [15] was 46.9 µM and the TGI [16] was 32.8 µM. It also gave a TGI [17] of 30.5 µM, a TGI [18] of 29.9 µM and a TGI [20] of 32.2 µM. The TGI [21] was 35.3 µM, the TGI [23] was 35.2 µM and the TGI [24] was 35.8 µM. The TGI [25] was 33.9 µM, the TGI [26] was 31 µM and the TGI [27] was 28 µM. The TGI [28] was 35.4 µM, the TGI [29] was 30.4 µM and the TGI [30] was 29.2 µM. It also gave a TGI [57] of 30.9 µM, a TGI [31] of 31 µM and a TGI [32] of 32.2 µM. It also gave a TGI [33] of 28.6 µM, a TGI [34] of 33.5 µM and a TGI [35] of 35.2 µM. For the same compound, the TGI [36] was 30.4 µM, the TGI [37] was 32.3 µM and the TGI [40] was 34.4 µM. It also gave a TGI [42] of 37.3 µM, a TGI [43] of 35.7 µM and a TGI [44] of 30.7 µM. For the same compound, the TGI [45] was 30 µM, the TGI [46] was 35.3 µM and the TGI [47] was 34.7 µM. The TGI [48] was 26.9 µM, the TGI [49] was 32.1 µM and the TGI [58] was 34 µM. The TGI [50] was 28.7 µM, the TGI [51] was 32.3 µM and the TGI [52] was 30.6 µM. The TGI [53] was 31.9 µM and the TGI [55] was 32.4 µM.
